Source: paper PMC10291553, “Exploring Structure–Activity Relationships in Photodynamic Therapy Anticancer Agents Based on Ir(III)-COUPY Conjugates” (Journal of Medicinal Chemistry, 2023)
Where “and” joins values, the source holds several entries; their conditions need not be identical. Identical values can stand only once. Like-named read-outs stand apart in the source and are kept apart here.

Key:
A375 = experiment: Photo- and cytotoxic activity determination (MTT), A375 cells; type: cell-based, human; details: normoxia; for IC50: 48 h drug-free medium; for A375 PI (phototherapeutic index), IC50 dark/IC50 irradiated: 520 nm, dark tested up to 100 μM
Source text: (§1) Having shown that the Ir(III)-COUPY conjugates can sensitize both type I and II ROS through spectroscopic techniques and readily internalize into living cells, their photocytotoxicity was screened in various cancer cell lines. This screening included two representative melanoma cell lines (human A375 and […] human SK-MEL-28) and cancer cells with resistance to the clinical drug cisplatin. For the latter, both sensitive and cisplatin-resistant ovarian cancer cells (A2780 and A2780cis) as well as HeLa cells, which also show a degree of chemoresistance to the platinum anticancer drug in vitro,[54] were used. For the determination of dark and light cytotoxicity, dose–response curves were assayed from both conditions to provide the correspondent IC50 values, which correspond to the concentration needed for inhibition of cell growth by 50%. Phototherapeutic index (PI) was calculated as the ratio of dark to light IC50 value for each compound.
(§2) A375, HeLa, and SK-MEL-28 cells were cultured in Dulbecco’s modified Eagle medium (DMEM) supplemented with 10% FBS, L-glutamine, and 1% penicillin–streptomycin. A2780 and A2780cis cells were grown in RPMI-1640 cell medium supplemented with 10% fetal bovine serum (FBS) and 2 mM L-glutamine. Acquired resistance to cisplatin in the A2780cis cell line was maintained by adding cisplatin 1 μM to culture medium every second passage. Cells were cultured in a humidified incubator at 310 K with 5% CO2 atmosphere and subcultured two or three times a week with appropriate densities and were confirmed to be mycoplasma-free using a standard Hoechst DNA staining method.
(§3) A2780, A2780cis, HeLa, A375, and SK-MEL-28 cells were maintained at logarithmic growth-phase and cultured in 96-well plates at a density of 5000 cells/well in complete medium for 24 h at 310 K, 5% CO2 in a humidified incubator. For hypoxia experiments, a hypoxia condition was set up by Tissue Culture Service at University of Murcia using nitrogen (N2) to displace O2 down to a minimum of 2% in a Forma Steri-Cycle i160 incubator (Thermo Fisher Scientific). Serial dilutions of the compounds were added at the final concentrations in the range of 0–100 μM in a final volume of 100 μL per well. A light-based treatment schedule was performed as follows: 1 h incubation with the compounds in the dark, followed by 1 h incubation under irradiation conditions by placing the Photoreactor EXPO-LED from Luzchem (Canada) fitted with green lamps (final light intensity applied of 1.5 mW/cm^2 at λmax = 520 nm) inside the CO2 incubator. All the cell culture plates subjected to light irradiation included untreated controls to verify that cell viability was not affected by light. Then, treatment-containing media was removed, and fresh media was added for a 48 h cell recovery period; the temperature throughout the experiment remained at 310 K. Dark control samples were placed in the same dark conditions and then kept incubated for 1 h in the dark in the humidified CO2 incubator. Medium was then aspirated by suction, cells were loaded with 50 μL of MTT solution (1 mg/mL) for additional 4 h and then removed, and 50 μL of DMSO was added to solubilize the purple formazan crystals formed in active cells. The absorbance was measured at 570 nm using a microplate reader (FLUOstar Omega), and the IC50 values were calculated based on the inhibitory rate curves using the following equation [drawing 4] 4 where I represents the percentage inhibition of viability observed, Imax is the maximal inhibitory effect, IC50 is the concentration that inhibits 50% of maximal growth, C is the concentration of the treatment, and n is the slope of the semi-logarithmic dose–response sigmoidal curves. The non-linear fitting was performed using SigmaPlot 14.0 software. All experiments were performed in three independent studies with n = 3 replicates per concentration level. For a detailed phototoxicity procedure, ref ([43]) includes technical explanations.

HeLa = experiment: Photo- and cytotoxic activity determination (MTT), HeLa cells; type: cell-based; details: normoxia; for HeLa PI (phototherapeutic index), IC50 dark/IC50 irradiated: dark tested up to 100 μM
Source text: as §1, §2, §3

A2780 = experiment: Photo- and cytotoxic activity determination (MTT), A2780 cells; type: cell-based; details: normoxia; for A2780 PI (phototherapeutic index), IC50 dark/IC50 irradiated: dark tested up to 100 μM
Source text: as §1, §2, §3

A2780cis cells = experiment: Photo- and cytotoxic activity determination (MTT), A2780cis cells, normoxia or hypoxia; type: cell-based; details: for Hypoxia PI (phototherapeutic index) / Normoxia PI (phototherapeutic index): dark tested up to 250 μM; for A2780cis PI (phototherapeutic index), IC50 dark/IC50 irradiated: dark tested up to 100 μM
Source text: as §1, §2
as §3, with “Serial dilutions of the compounds were added at the final concentrations in the range of 0–100 μM in a final volume of 100 μL per well.” left out

[1] = Homo sapiens, A-375, 1 h incubation + 1 h green light 520 nm, 1.5 mW cm^–2, read-out: A375 light IC50
[2] = Homo sapiens, A-375, kept in the dark, 2 h treatment, read-out: A375 dark IC50
[3] = Homo sapiens, HeLa, 1 h incubation + 1 h green light 520 nm, 1.5 mW cm^–2, 48 h drug-free medium, read-out: HeLa light IC50
[4] = Homo sapiens, HeLa, kept in the dark, 2 h treatment, 48 h drug-free medium, read-out: HeLa dark IC50
[5] = Homo sapiens, A2780, 1 h incubation + 1 h green light 520 nm, 1.5 mW cm^–2, 48 h drug-free medium, read-out: A2780 light IC50
[6] = Homo sapiens, A2780, kept in the dark, 2 h treatment, 48 h drug-free medium, read-out: A2780 dark IC50
[7] = 250 μM, A2780cis, 2 h incubation in the dark, 48 h drug-free recovery, hypoxia, read-out: Partial inhibition (% of cell growth inhibition with respect to untreated controls), Hypoxia
[8] = 250 μM, A2780cis, 2 h incubation in the dark, 48 h drug-free recovery, normoxia, read-out: Partial inhibition (% of cell growth inhibition with respect to untreated controls), Normoxia
[9] = A2780cis, hypoxia 2% O2, 520 nm
[10] = A2780cis, hypoxia, 520 nm, read-out: A2780cis Light 520 nm IC50 (microM) Hypoxia
[11] = A2780cis, hypoxia, dark, read-out: A2780cis Dark IC50 (microM) Hypoxia
[12] = A2780cis, normoxia 21% O2, 520 nm
[13] = A2780cis, hypoxia 2% O2, dark, tested up to 250 μM, read-out: Hypoxia Dark IC50
[14] = A2780cis, normoxia 21% O2, dark, tested up to 250 μM, read-out: Normoxia Dark IC50

CC1=C/C(=C(\C#N)c2cc[n+](C)cc2)Oc2c1cc1c3c2CCCN3CCC1 [1c]
IC50 (A375; [1]): 0.31 ± 0.02 µM
IC50 (A375; [2]): 9.9 ± 0.5 µM
A375 PI (phototherapeutic index), IC50 dark/IC50 irradiated (A375): 32
IC50 (HeLa; [3]): 1.1 ± 0.8 µM
IC50 (HeLa; [4]): 26 ± 4 µM
HeLa PI (phototherapeutic index), IC50 dark/IC50 irradiated (HeLa; 520 nm): 24
IC50 (A2780; [5]): 0.09 ± 0.01 µM
IC50 (A2780; [6]): 5.1 ± 0.9 µM
A2780 PI (phototherapeutic index), IC50 dark/IC50 irradiated (A2780; 520 nm): 57
inhibition at 250 µM (A2780cis cells; [7]): 100%
inhibition at 250 µM (A2780cis cells; [8]): 100%
Hypoxia PI (phototherapeutic index) (A2780cis cells; [9]): 36.4
IC50 (A2780cis cells; [10]): 0.6 ± 0.1 µM
IC50 (A2780cis cells; [11]): 20 ± 2 µM
Normoxia PI (phototherapeutic index) (A2780cis cells; [12]): 100.0
IC50 (A2780cis cells; A2780cis, normoxia, 1 h incubation + 1 h green light 520 nm, 1.5 mW cm^–2, 48 h drug-free medium, read-out: A2780cis light IC50): 0.15 ± 0.04 µM
IC50 (A2780cis cells; A2780cis, normoxia, kept in the dark, tested up to 100 μM, 2 h treatment, 48 h drug-free medium, read-out: A2780cis dark IC50): 15 ± 2 µM
A2780cis PI (phototherapeutic index), IC50 dark/IC50 irradiated (A2780cis cells; normoxia, 520 nm): 100

CC1=C/C(=C(\C#N)c2cc[n+](C)cc2)Oc2ccccc21 [1b]
IC50 (A375; [1]): 10 ± 2 µM
IC50 (A375; [2]): > 100 µM
A375 PI (phototherapeutic index), IC50 dark/IC50 irradiated (A375): > 10
IC50 (HeLa; Homo sapiens, HeLa, 520 nm, read-out: HeLa Light 520 nm IC50 (microM) Normoxia): > 100 µM
IC50 (HeLa; [3]): > 100 µM
IC50 (HeLa; Homo sapiens, HeLa, dark, read-out: HeLa Dark IC50 (microM) Normoxia): > 100 µM
IC50 (HeLa; [4]): > 100 µM
IC50 (A2780; Homo sapiens, A2780, 520 nm, read-out: A2780 Light 520 nm IC50 (microM) Normoxia): > 100 µM
IC50 (A2780; [5]): > 100 µM
IC50 (A2780; Homo sapiens, A2780, dark, read-out: A2780 Dark IC50 (microM) Normoxia): > 100 µM
IC50 (A2780; [6]): > 100 µM
inhibition at 250 µM (A2780cis cells; [7]): 4.5 ± 0.6%
inhibition at 250 µM (A2780cis cells; [8]): 24 ± 3%
IC50 (A2780cis cells; A2780cis, hypoxia 2% O2, 1 h incubation + 1 h green light 520 nm, 48 h drug-free, read-out: Hypoxia 520 nm IC50): > 250 µM
IC50 (A2780cis cells; [13]): > 250 µM
IC50 (A2780cis cells; [10]): > 250 µM
IC50 (A2780cis cells; [11]): > 250 µM
IC50 (A2780cis cells; A2780cis, normoxia 21% O2, 1 h incubation + 1 h green light 520 nm, 48 h drug-free, read-out: Normoxia 520 nm IC50): > 250 µM
IC50 (A2780cis cells; [14]): > 250 µM
IC50 (A2780cis cells; A2780cis, normoxia, 520 nm, read-out: A2780cis Light 520 nm IC50 (microM) Normoxia): > 250 µM
IC50 (A2780cis cells; A2780cis, normoxia, dark, up to 250 microM, read-out: A2780cis Dark IC50 (microM) Normoxia): > 250 µM

CCCCn1c2[n+](c3cc(C(=O)NCCCCCC(=O)NCCCNC(=O)C[n+]4ccc(/C(C#N)=C5/C=C(C)c6ccc(N(CC)CC)cc6O5)cc4)ccc31)[Ir-3]13([c]4ccccc4-c4[nH]c5ccccc5[n+]41)([c]1ccccc1-c1[nH]c4ccccc4[n+]13)[n+]1c-2ccc2ccccc21 [3d]
A375 PI (phototherapeutic index), IC50 dark/IC50 irradiated (A375): > 2.2
IC50 (A375; 1 h incubation + 1 h green light 520 nm, 1.5 mW cm^–2, read-out: A375 light IC50): 46 ± 4 µM
IC50 (A375; kept in the dark, 2 h treatment, read-out: A375 dark IC50): > 100 µM
HeLa PI (phototherapeutic index), IC50 dark/IC50 irradiated (HeLa; 520 nm): > 50
IC50 (HeLa; 1 h incubation + 1 h green light 520 nm, 1.5 mW cm^–2, 48 h drug-free medium, read-out: HeLa light IC50): 2 ± 0.4 µM
IC50 (HeLa; kept in the dark, 2 h treatment, 48 h drug-free medium, read-out: HeLa dark IC50): > 100 µM
A2780 PI (phototherapeutic index), IC50 dark/IC50 irradiated (A2780; 520 nm): > 56
IC50 (A2780; 1 h incubation + 1 h green light 520 nm, 1.5 mW cm^–2, 48 h drug-free medium, read-out: A2780 light IC50): 1.78 ± 0.07 µM
IC50 (A2780; kept in the dark, 2 h treatment, 48 h drug-free medium, read-out: A2780 dark IC50): > 100 µM
Partial inhibition (% of cell growth inhibition with respect to untreated controls), Hypoxia (A2780cis cells; 250 μM, A2780cis, 2 h incubation in the dark, 48 h drug-free recovery, hypoxia): 27 ± 4%
Partial inhibition (% of cell growth inhibition with respect to untreated controls), Normoxia (A2780cis cells; 250 μM, A2780cis, 2 h incubation in the dark, 48 h drug-free recovery, normoxia): 21 ± 1%
Hypoxia PI (phototherapeutic index) (A2780cis cells; [9]): > 131.6 and > 131
IC50 (A2780cis cells; [13]): > 250 µM
Normoxia PI (phototherapeutic index) (A2780cis cells; [12]): > 227.3 and > 227
IC50 (A2780cis cells; [14]): > 250 µM
IC50 (A2780cis cells; hypoxia, 520 nm, read-out: A2780cis Light 520 nm IC50 (microM) Hypoxia): 1.9 ± 0.2 µM
IC50 (A2780cis cells; hypoxia, dark, read-out: A2780cis Dark IC50 (microM) Hypoxia): > 250 µM
A2780cis PI (phototherapeutic index), IC50 dark/IC50 irradiated (A2780cis cells; normoxia, 520 nm): > 91
IC50 (A2780cis cells; normoxia, 1 h incubation + 1 h green light 520 nm, 1.5 mW cm^–2, 48 h drug-free medium, read-out: A2780cis light IC50): 1.1 ± 0.2 µM
IC50 (A2780cis cells; normoxia, dark, up to 250 microM, read-out: A2780cis Dark IC50 (microM) Normoxia): > 250 µM
IC50 (A2780cis cells; normoxia, kept in the dark, tested up to 100 μM, 2 h treatment, 48 h drug-free medium, read-out: A2780cis dark IC50): > 100 µM
